# Patent publication US20200247800A1, “SUBSTITUTED BICYCLIC HETEROCYCLIC COMPOUNDS AS NADPH OXIDASE INHIBITORS” (Glenmark Pharmaceuticals S.A., priority 2017, published 2020)
# Target: T1, human NOX4 (Homo sapiens, UniProt Q9NPH5)
# T1 construct: expressed in transfected cells; membrane fraction used
# T1 sequence (Q9NPH5 1-578): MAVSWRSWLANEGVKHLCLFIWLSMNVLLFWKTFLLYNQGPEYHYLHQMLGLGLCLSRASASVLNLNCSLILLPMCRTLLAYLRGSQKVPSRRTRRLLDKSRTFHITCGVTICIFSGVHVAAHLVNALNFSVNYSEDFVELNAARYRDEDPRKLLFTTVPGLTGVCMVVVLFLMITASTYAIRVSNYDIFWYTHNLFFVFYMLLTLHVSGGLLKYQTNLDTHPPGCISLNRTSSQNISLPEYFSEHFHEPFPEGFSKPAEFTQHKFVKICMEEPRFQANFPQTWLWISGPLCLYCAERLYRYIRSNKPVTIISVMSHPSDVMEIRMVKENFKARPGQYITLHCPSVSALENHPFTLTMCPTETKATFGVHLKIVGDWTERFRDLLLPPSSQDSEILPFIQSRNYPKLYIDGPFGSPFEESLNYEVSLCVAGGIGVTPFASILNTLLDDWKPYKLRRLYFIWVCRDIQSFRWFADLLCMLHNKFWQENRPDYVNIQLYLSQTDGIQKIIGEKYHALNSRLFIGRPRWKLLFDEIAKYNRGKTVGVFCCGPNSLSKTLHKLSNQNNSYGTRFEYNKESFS
# T1 sequence (P13498 1-195 partner): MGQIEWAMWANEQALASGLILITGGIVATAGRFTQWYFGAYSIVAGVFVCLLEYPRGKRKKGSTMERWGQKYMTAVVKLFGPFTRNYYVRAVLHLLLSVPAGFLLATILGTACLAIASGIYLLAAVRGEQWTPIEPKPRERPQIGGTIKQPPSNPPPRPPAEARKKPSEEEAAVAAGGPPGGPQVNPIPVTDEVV
# Assay: Cell free membrane based in vitro NOX4 assay: H2O2 production by membranes expressing human NOX4, measured with Amplex Red
# Format: biochemical
# Conditions: for inhibition at 1 µM: 1.0 μM compound, read-out: Percentage inhibition at 1.0 μM; for inhibition at 10 µM: 10.0 μM compound, read-out: Percentage inhibition at 10.0 μM; for IC50: class symbols
# How it was run: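 Membranes from HEK cells stably overexpressing human NOX4 were preincubated 20 min with inhibitor in pH 7.4 HEPES buffer containing HRP and Amplex Red, then NADPH was added. H2O2 was followed for 10 min by fluorescence (ex 544/em 590 nm). IC50 from nonlinear regression of % maximal uninhibited response.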
SMILES,inhibition at 1 µM,inhibition at 10 µM,IC50
"Cc1nn(-c2ccc(F)cc2Cl)c2[nH]c(-c3ccccc3Cl)c(O)c(=O)c12 [Example 141, 1-(2-Chloro-4-fluorophenyl)-6-(2-chlorophenyl)-5-hydroxy-3-methyl-1H-pyrazolo[3,4-b]pyridin-4(7H)-one]",77.9%,95.1%,> 150 nM
"Cc1nn(C2CCOCC2)c2[nH]c(-c3cc(CNC(=O)C(C)(C)C)ccc3Cl)c(O)c(=O)c12 [Example 142, N-(4-Chloro-3-(5-hydroxy-3-methyl-4-oxo-1-(tetrahydro-2H-pyran-4-yl)-4,7-dihydro-1H-pyrazolo[3,4-b]pyridin-6-yl)benzyl)pivalamide]",80.4%,69.9%,> 150 nM
"Cn1nc(Cc2ccccc2Cl)c2c(=O)c(O)c(-c3ccccc3Cl)[nH]c21 [Example 145, 3-(2-Chlorobenzyl)-6-(2-chlorophenyl)-5-hydroxy-1-methyl-1H-pyrazolo[3,4-b]pyridin-4(7H)-one]",90%,93.2%,> 150 nM
"Cc1nn(CCCN2CCOCC2)c2[nH]c(-c3ccccc3Cl)c(O)c(=O)c12 [Example 147, 6-(2-Chlorophenyl)-5-hydroxy-3-methyl-1-(3-morpholinopropyl)-1H-pyrazolo[3,4-b]pyridin-4(7H)-one]",94.3%,64.9%,100 to 150 nM
"Cc1nn(CCN2C[C@@H](C)O[C@@H](C)C2)c2[nH]c(-c3ccccc3Cl)c(O)c(=O)c12 [Example 148, 6-(2-Chlorophenyl)-1-(2-((2S,6R)-2,6-dimethylmorpholino)ethyl)-5-hydroxy-3-methyl-1H-pyrazolo[3,4-b]pyridin-4(7H)-one]",94.3%,85.3%,> 150 nM
"Cc1nn(CCN2CCCCC2)c2[nH]c(-c3ccccc3Cl)c(O)c(=O)c12 [Example 149, 6-(2-Chlorophenyl)-5-hydroxy-3-methyl-1-(2-(piperidin-1-yl)ethyl)-1H-pyrazolo[3,4-b]pyridin-4(7H)-one]",79.1%,74.7%,> 150 nM
"O=c1c(O)c(-c2ccccc2Cl)[nH]c2c1c(C(F)(F)F)nn2CCN1CCOCC1 [Example 150, 6-(2-Chlorophenyl)-5-hydroxy-1-(2-morpholinoethyl)-3-(trifluoromethyl)-1H-pyrazolo[3,4-b]pyridin-4(7H)-one]",67.1%,84.4%,> 150 nM
"Cc1nn(CCN2CCCC2)c2[nH]c(-c3ccccc3Cl)c(O)c(=O)c12 [Example 151, 6-(2-Chlorophenyl)-5-hydroxy-3-methyl-1-(2-(pyrrolidin-1-yl)ethyl)-1H-pyrazolo[3,4-b]pyridin-4(7H)-one]",81.1%,76.2%,> 150 nM
"Cc1nn(CCN2CCOCC2)c2[nH]c(-c3ccccc3C(F)(F)F)c(O)c(=O)c12 [Example 152, 5-Hydroxy-3-methyl-1-(2-morpholinoethyl)-6-(2-(trifluoromethyl)phenyl)-1H-pyrazolo[3,4-b]pyridin-4(7H)-one]",93.5%,89.9%,100 to 150 nM
"Cc1nn(CCN2CCOCC2)c2[nH]c(-c3cccc(C(F)(F)F)c3F)c(O)c(=O)c12 [Example 153, 6-(2-fluoro-3-(trifluoromethyl)phenyl)-5-hydroxy-3-methyl-1-(2-morpholinoethyl)-1H-pyrazolo[3,4-b]pyridin-4(7H)-one]",100%,93%,> 150 nM
"CN(C)CCn1nc(C(F)(F)F)c2c(=O)c(O)c(-c3ccccc3Cl)[nH]c21 [Example 154, 6-(2-chlorophenyl)-1-(2-(dimethylamino)ethyl)-5-hydroxy-3-(trifluoromethyl)-1H-pyrazolo[3,4-b]pyridin-4(7H)-one]",99.6%,100%,> 150 nM
"CCc1nn(C)c2[nH]c(-c3ccc(F)c(C(F)(F)F)c3)c(O)c(=O)c12 [Example 159, 3-Ethyl-6-(4-fluoro-3-(trifluoromethyl)phenyl)-5-hydroxy-1-methyl-1H-pyrazolo[3,4-b]pyridine-4(7H)-one]",71.9%,–,> 150 nM
"CCc1nn(C)c2[nH]c(-c3cccc(C(F)(F)F)c3F)c(O)c(=O)c12 [Example 160, 3-Ethyl-6-(2-fluoro-3-(trifluoromethyl)phenyl)-5-hydroxy-1-methyl-1H-pyrazolo[3,4-b]pyridine-4(7H)-one]",80.7%,68.9%,> 150 nM
"CCc1nn(C)c2[nH]c(-c3ccc(F)cc3F)c(O)c(=O)c12 [Example 161, 6-(2,4-Difluorophenyl)-3-ethyl-5-hydroxy-1-methyl-1H-pyrazolo[3,4-b]pyridin-4(7H)-one]",71.6%,–,> 150 nM
"CCc1nn(C)c2[nH]c(-c3cc(F)cc(F)c3)c(O)c(=O)c12 [Example 162, 6-(3,5-Difluorophenyl)-3-ethyl-5-hydroxy-1-methyl-1H-pyrazolo[3,4-b]pyridine-4(7H)-one]",74.8%,–,> 150 nM
"CCc1nn(C)c2[nH]c(-c3cc(F)ccc3F)c(O)c(=O)c12 [Example 163, 6-(2,5-Difluorophenyl)-3-ethyl-5-hydroxy-1-methyl-1H-pyrazolo[3,4-b]pyridine-4(7H)-one]",72.8%,–,> 150 nM
"CCc1nn(CCN2CCOCC2)c2[nH]c(-c3cccc(C(F)(F)F)c3F)c(O)c(=O)c12 [Example 164, 3-Ethyl-6-(2-fluoro-3-(trifluoromethyl)phenyl)-5-hydroxy-1-(2-morpholinoethyl)-1H-pyrazolo[3,4-b]pyridin-4(7H)-one]",–,–,> 150 nM

# Further lines, results first:
inhibition at 1 µM,inhibition at 10 µM,IC50,SMILES
73.1%,–,100 to 150 nM,"CCn1nc(C)c2c(=O)c(O)c(-c3ccccc3C(F)(F)F)[nH]c21 [Example 143, 1-Ethyl-5-hydroxy-3-methyl-6-(2-(trifluoromethyl)phenyl)-1H-pyrazolo[3,4-b]pyridin-4(7H)-one]"
83.6%,63.8%,50 to 100 nM,"Cc1nn(C2CCC2)c2[nH]c(-c3ccccc3Cl)c(O)c(=O)c12 [Example 144, 6-(2-Chlorophenyl)-1-cyclobutyl-5-hydroxy-3-methyl-1H-pyrazolo[3,4-b]pyridin-4(7H)-one]"
94%,81.8%,100 to 150 nM,"CCc1nn(CCN2CCOCC2)c2[nH]c(-c3ccccc3Cl)c(O)c(=O)c12 [Example 146, 6-(2-Chlorophenyl)-3-ethyl-5-hydroxy-1-(2-morpholinoethyl)-1H-pyrazolo[3,4-b]pyridin-4(7H)-one]"
100%,93.3%,< 50 nM,"Cc1nn(CCN2CCN(C)CC2)c2[nH]c(-c3ccccc3Cl)c(O)c(=O)c12 [Example 155, 6-(2-chlorophenyl)-5-hydroxy-3-methyl-1-(2-(4-methylpiperazin-1-yl)ethyl)-1H-pyrazolo[3,4-b]pyridin-4(7H)-one]"
97.4%,100%,< 50 nM,"CCc1nn(CCN2CCOCC2)c2[nH]c(-c3c(F)cccc3F)c(O)c(=O)c12 [Example 156, 6-(2,6-difluorophenyl)-3-ethyl-5-hydroxy-1-(2-morpholinoethyl)-1H-pyrazolo[3,4-b]pyridin-4(7H)-one]"
95.2%,98.6%,50 to 100 nM,"CCc1nn(CCn2cccn2)c2[nH]c(-c3ccccc3Cl)c(O)c(=O)c12 [Example 157, 1-(2-(1H-pyrazol-1-yl)ethyl)-6-(2-chlorophenyl)-3-ethyl-5-hydroxy-1H-pyrazolo[3,4-b]pyridin-4(7H)-one]"
100%,100%,< 50 nM,"CCc1nn(CCn2cccn2)c2[nH]c(-c3c(F)cccc3F)c(O)c(=O)c12 [Example 158, 1-(2-(1H-pyrazol-1-yl)ethyl)-6-(2,6-difluorophenyl)-3-ethyl-5-hydroxy-1H-pyrazolo[3,4-b]pyridin-4(7H)-one]"
99.9%,80.1%,< 50 nM,"CCc1nn(CCN2CCN(C)CC2)c2[nH]c(-c3ccccc3Cl)c(O)c(=O)c12 [Example 165, 6-(2-Chlorophenyl)-3-ethyl-5-hydroxy-1-(2-(4-methylpiperazin-1-yl)ethyl)-1H-pyrazolo[3,4-b]pyridine-4(7H)-one]"
96.4%,95.5%,< 50 nM,"CCc1nn(CCN2CCN(C)CC2)c2[nH]c(-c3c(F)cccc3F)c(O)c(=O)c12 [Example 166, 6-(2,6-Difluorophenyl)-3-ethyl-5-hydroxy-1-(2-(4-methylpiperazin-1-yl)ethyl)-1H-pyrazolo[3,4-b]pyridine-4(7H)-one]"
